How the values were obtained:
[1] = Compound cytotoxicity, XTT-based colorimetric assay; type: cell-based; details: human; uninfected MT2 cells, day 4, XTT
Procedure, shortened: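 Run under the antiviral-assay protocol but without virus. Viability was read on day 4 and CC50 values were derived from the readout.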

[2] = test system: recombinant NL4-3 virus (Renilla luciferase) in MT-2 cells; experiment: HIV cell culture assay (antiviral activity, luciferase readout); type: cell-based; details: Renilla, NL43
Procedure, shortened: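 MT-2 cells were infected with recombinant NL4-3 virus carrying Renilla luciferase in place of part of nef. Cells were cultured 4–5 days with serially diluted compound, and luciferase was measured with a live-cell substrate. EC50 was calculated from the median effect equation.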

Row | SMILES | CC50 at 4 days [1] [nM] | EC50 [2] [nM]
1 | Cn1nc(NS(C)(=O)=O)c2c(Cl)ccc(-n3c([C@H](Cc4cc(F)cc(F)c4)NC(=O)Cn4nc(C(F)F)c5c4C(F)(F)[C@@H]4C[C@H]54)nc4cc(-c5cc(C(F)(F)F)ccn5)ccc4c3=O)c21 (atropisomer, axis not shown; (P)) [Example 80, N—((S)-1-((3P)-3-(4-chloro-1-methyl-3-(methylsulfonamido)-1H-indazol-7-yl)-4-oxo-7-(4-(trifluoromethyl)pyridin-2-yl)-3,4-dihydroquinazolin-2-yl)-2-(3,5-difluorophenyl)ethyl)-2-((3bS,4aR)-3-(difluoromethyl)-5,5-difluoro-3b,4,4a,5-tetrahydro-1H-cyclopropa[3,4]cyclopenta[1,2-c]pyrazol-1-yl)acetamide] | > 100 | 0.2
2 | Cc1nccc(-c2ccc3c(=O)n(-c4ccc(Cl)c5c(NS(=O)(=O)C6CC6)nn(CC(F)F)c45)c([C@H](Cc4cc(F)cc(F)c4)NC(=O)Cn4nc(C(F)F)c5c4C(F)(F)[C@@H]4C[C@H]54)nc3c2)n1 (atropisomer, axis not shown; (P)) [Example 81, N—((S)-1-((3P)-3-(4-chloro-3-(cyclopropanesulfonamido)-1-(2,2-difluoroethyl)-1H-indazol-7-yl)-7-(2-methylpyrimidin-4-yl)-4-oxo-3,4-dihydroquinazolin-2-yl)-2-(3,5-difluorophenyl)ethyl)-2-((3bS,4aR)-3-(difluoromethyl)-5,5-difluoro-3b,4,4a,5-tetrahydro-1H-cyclopropa[3,4]cyclopenta[1,2-c]pyrazol-1-yl)acetamide] | > 500 | 0.092
3 | CCc1cc(C)nc(-c2ccc3c(=O)n(-c4ccc(Cl)c5c(NS(=O)(=O)C6CC6)nn(CC(F)F)c45)c([C@H](Cc4cc(F)cc(F)c4)NC(=O)Cn4nc(C(F)F)c5c4C(F)(F)[C@@H]4C[C@H]54)nc3c2)n1 (atropisomer, axis not shown; (P)) [Example 82, N—((S)-1-((3P)-3-(4-chloro-3-(cyclopropanesulfonamido)-1-(2,2-difluoroethyl)-1H-indazol-7-yl)-7-(4-ethyl-6-methylpyrimidin-2-yl)-4-oxo-3,4-dihydroquinazolin-2-yl)-2-(3,5-difluorophenyl)ethyl)-2-((3bS,4aR)-3-(difluoromethyl)-5,5-difluoro-3b,4,4a,5-tetrahydro-1H-cyclopropa[3,4]cyclopenta[1,2-c]pyrazol-1-yl)acetamide] | > 500 | 0.25
4 | Cc1cc(C)nc(-c2ccc3c(=O)n(-c4ccc(Cl)c5c(NS(=O)(=O)C6CC6)nn(CC(F)F)c45)c([C@H](Cc4cc(F)cc(F)c4)NC(=O)Cn4nc(C(F)F)c5c4C(F)(F)[C@@H]4C[C@H]54)nc3c2)c1 (atropisomer, axis not shown; (P)) [Example 83, N—((S)-1-((3P)-3-(4-chloro-3-(cyclopropanesulfonamido)-1-(2,2-difluoroethyl)-1H-indazol-7-yl)-7-(4,6-dimethylpyridin-2-yl)-4-oxo-3,4-dihydroquinazolin-2-yl)-2-(3,5-difluorophenyl)ethyl)-2-((3bS,4aR)-3-(difluoromethyl)-5,5-difluoro-3b,4,4a,5-tetrahydro-1H-cyclopropa[3,4]cyclopenta[1,2-c]pyrazol-1-yl)acetamide] | > 500 | 0.44
5 | O=C(Cn1nc(C(F)F)c2c1C(F)(F)[C@@H]1C[C@H]21)N[C@@H](Cc1cc(F)cc(F)c1)c1nc2cc(-c3nccc(C(F)(F)F)n3)ccc2c(=O)n1-c1ccc(Cl)c2c(NS(=O)(=O)C3CC3)nn(CC(F)F)c12 (atropisomer, axis not shown; (P)) [Example 84, N—((S)-1-((3P)-3-(4-chloro-3-(cyclopropanesulfonamido)-1-(2,2-difluoroethyl)-1H-indazol-7-yl)-4-oxo-7-(4-(trifluoromethyl)pyrimidin-2-yl)-3,4-dihydroquinazolin-2-yl)-2-(3,5-difluorophenyl)ethyl)-2-((3bS,4aR)-3-(difluoromethyl)-5,5-difluoro-3b,4,4a,5-tetrahydro-1H-cyclopropa[3,4]cyclopenta[1,2-c]pyrazol-1-yl)acetamide] | > 500 | 0.22
6 | Cc1cc(-c2ccc3c(=O)n(-c4ccc(Cl)c5c(NS(=O)(=O)C6CC6)nn(CC(F)F)c45)c([C@H](Cc4cc(F)cc(F)c4)NC(=O)Cn4nc(C(F)F)c5c4C(F)(F)[C@@H]4C[C@H]54)nc3c2)nc(C)n1 (atropisomer, axis not shown; (P)) [Example 85, N—((S)-1-((3P)-3-(4-chloro-3-(cyclopropanesulfonamido)-1-(2,2-difluoroethyl)-1H-indazol-7-yl)-7-(2,6-dimethylpyrimidin-4-yl)-4-oxo-3,4-dihydroquinazolin-2-yl)-2-(3,5-difluorophenyl)ethyl)-2-((3bS,4aR)-3-(difluoromethyl)-5,5-difluoro-3b,4,4a,5-tetrahydro-1H-cyclopropa[3,4]cyclopenta[1,2-c]pyrazol-1-yl)acetamide] | > 500 | 0.088
7 | O=C(Cn1nc(C(F)F)c2c1C(F)(F)[C@@H]1C[C@H]21)N[C@@H](Cc1cc(F)cc(F)c1)c1nc2cc(-c3nccc(C(F)F)n3)ccc2c(=O)n1-c1ccc(Cl)c2c(NS(=O)(=O)C3CC3)nn(CC(F)F)c12 (atropisomer, axis not shown; (P)) [Example 86, N—((S)-1-((3P)-3-(4-chloro-3-(cyclopropanesulfonamido)-1-(2,2-difluoroethyl)-1H-indazol-7-yl)-7-(4-(difluoromethyl)pyrimidin-2-yl)-4-oxo-3,4-dihydroquinazolin-2-yl)-2-(3,5-difluorophenyl)ethyl)-2-((3bS,4aR)-3-(difluoromethyl)-5,5-difluoro-3b,4,4a,5-tetrahydro-1H-cyclopropa[3,4]cyclopenta[1,2-c]pyrazol-1-yl)acetamide] | > 500 | 0.078
8 | Cc1nnc(-c2ccc3c(=O)n(-c4ccc(Cl)c5c(NS(=O)(=O)C6CC6)nn(CC(F)F)c45)c([C@H](Cc4cc(F)cc(F)c4)NC(=O)Cn4nc(C(F)F)c5c4C(F)(F)[C@@H]4C[C@H]54)nc3c2)nc1C (atropisomer, axis not shown; (P)) [Example 87, N—((S)-1-((3P)-3-(4-chloro-3-(cyclopropanesulfonamido)-1-(2,2-difluoroethyl)-1H-indazol-7-yl)-7-(5,6-dimethyl-1,2,4-triazin-3-yl)-4-oxo-3,4-dihydroquinazolin-2-yl)-2-(3,5-difluorophenyl)ethyl)-2-((3bS,4aR)-3-(difluoromethyl)-5,5-difluoro-3b,4,4a,5-tetrahydro-1H-cyclopropa[3,4]cyclopenta[1,2-c]pyrazol-1-yl)acetamide] | > 500 | 0.058
9 | Cc1ccc(-c2ccc3c(=O)n(-c4ccc(Cl)c5c(NS(=O)(=O)C6CC6)nn(CC(F)F)c45)c([C@H](Cc4cc(F)cc(F)c4)NC(=O)Cn4nc(C(F)F)c5c4C(F)(F)[C@@H]4C[C@H]54)nc3c2)nn1 (atropisomer, axis not shown; (P)) [Example 88, N—((S)-1-((3P)-3-(4-chloro-3-(cyclopropanesulfonamido)-1-(2,2-difluoroethyl)-1H-indazol-7-yl)-7-(6-methylpyridazin-3-yl)-4-oxo-3,4-dihydroquinazolin-2-yl)-2-(3,5-difluorophenyl)ethyl)-2-((3bS,4aR)-3-(difluoromethyl)-5,5-difluoro-3b,4,4a,5-tetrahydro-1H-cyclopropa[3,4]cyclopenta[1,2-c]pyrazol-1-yl)acetamide] | > 500 | 0.058
10 | O=C(Cn1nc(C(F)F)c2c1C(F)(F)[C@@H]1C[C@H]21)N[C@@H](Cc1cc(F)cc(F)c1)c1nc2cc(-c3cccnn3)ccc2c(=O)n1-c1ccc(Cl)c2c(NS(=O)(=O)C3CC3)nn(CC(F)F)c12 (atropisomer, axis not shown; (P)) [Example 89, N—((S)-1-((3P)-3-(4-chloro-3-(cyclopropanesulfonamido)-1-(2,2-difluoroethyl)-1H-indazol-7-yl)-4-oxo-7-(pyridazin-3-yl)-3,4-dihydroquinazolin-2-yl)-2-(3,5-difluorophenyl)ethyl)-2-((3bS,4aR)-3-(difluoromethyl)-5,5-difluoro-3b,4,4a,5-tetrahydro-1H-cyclopropa[3,4]cyclopenta[1,2-c]pyrazol-1-yl)acetamide] | > 500 | 0.075
11 | COc1ccc(-c2ccc3c(=O)n(-c4ccc(Cl)c5c(NS(=O)(=O)C6CC6)nn(CC(F)F)c45)c([C@H](Cc4cc(F)cc(F)c4)NC(=O)Cn4nc(C(F)F)c5c4C(F)(F)[C@@H]4C[C@H]54)nc3c2)nn1 (atropisomer, axis not shown; (P)) [Example 90, N—((S)-1-((3P)-3-(4-chloro-3-(cyclopropanesulfonamido)-1-(2,2-difluoroethyl)-1H-indazol-7-yl)-7-(6-methoxypyridazin-3-yl)-4-oxo-3,4-dihydroquinazolin-2-yl)-2-(3,5-difluorophenyl)ethyl)-2-((3bS,4aR)-3-(difluoromethyl)-5,5-difluoro-3b,4,4a,5-tetrahydro-1H-cyclopropa[3,4]cyclopenta[1,2-c]pyrazol-1-yl)acetamide] | > 500 | 0.085
12 | CC(C)c1nccc(-c2ccc3c(=O)n(-c4ccc(Cl)c5c(NS(=O)(=O)C6CC6)nn(CC(F)F)c45)c([C@H](Cc4cc(F)cc(F)c4)NC(=O)Cn4nc(C(F)F)c5c4C(F)(F)[C@@H]4C[C@H]54)nc3c2)n1 (atropisomer, axis not shown; (P)) [Example 91, N—((S)-1-((3P)-3-(4-chloro-3-(cyclopropanesulfonamido)-1-(2,2-difluoroethyl)-1H-indazol-7-yl)-7-(2-isopropylpyrimidin-4-yl)-4-oxo-3,4-dihydroquinazolin-2-yl)-2-(3,5-difluorophenyl)ethyl)-2-((3bS,4aR)-3-(difluoromethyl)-5,5-difluoro-3b,4,4a,5-tetrahydro-1H-cyclopropa[3,4]cyclopenta[1,2-c]pyrazol-1-yl)acetamide] | > 500 | 0.19

From US11541055B2, “Inhibitors of human immunodeficiency virus replication” (ViiV Healthcare UK (No. 5) LIMITED, priority 2018, dated 2023)
